Measurements reported in article PMC4180634, “Pharmacokinetic Study and Bioavailability of a Novel Synthetic Trioxane Antimalarial Compound 97/63 in Rats” (Malaria Research and Treatment, 2014).
Read-outs that look alike come from different tables or passages of the source.

What was measured:
[1] = Single dose pharmacokinetic study after oral and intravenous administration in male rats (serum, HPLC-UV); type: in vivo, Sprague-Dawley rats; conditions: for half-life: two-compartment model
Excerpt: Male Sprague-Dawley (SD) rats weighing 250 ± 25 g for this study were obtained from institutional Laboratory Animal Division, CDRI, Lucknow, prior to study. Rats were given standard pellets for feeding and filtered water was given ad libitum and they were housed in well ventilated cages which were kept at room temperature on a regular 12-h light-dark cycle. Animals were kept in accordance with the guidelines of local ethical committee (Ethical approval 58/08/PKM/IAEC) for animal experimentation and principles of the guide for care and use of laboratory animals were followed (Department of Health Education and Welfare, number [NIH] 85-32). Oral and IV study was carried out in two sets (I and II). Each set contained two groups, that is, groups A and B. PK was carried out by dosing 97/63 in two groups (A and B) containing four rats in each group for sparse sampling. Young and healthy male SD rats weighing 250 ± 25 g (obtained from Laboratory Animal Division of CDRI) were housed in well ventilated cages and kept at room temperature 25 ± 2°C on a regular 12-h light-dark cycle. Animals were cared for in accordance with the principles of guide for care and use of laboratory animals. Animals in oral study group were fasted overnight to minimize the effects of food on pharmacokinetic profile of 97/63. Intravenous dose was administered as a single bolus injection through tail vein using a 26 G needle after dilating the tail vein [16]. The oral dose was administered using a 2 mL syringe and feeding needle. After intravenous and oral dose administration, rats were also monitored for physiological behavior. […] The intravenous formulation for single dose, 18 mg kg^−1, was a solution of 97/63 in DMSO. The oral formulation for single dose, 72 mg kg^−1, was also a solution of 97/63 in DMSO. The formulations were subjected to quality control (QC) checks to ensure their strength and content uniformity prior to use. The strength of formulation for intravenous and oral administration was 18 mg mL^−1 and 36 mg mL^−1. Compound 97/63 formulated in DMSO was administered to overnight fasted rats by oral and intravenous route. The dose volume factor for intravenous administration was 1 mL kg^−1, with 250 g rat receiving 0.25 mL, and for oral administration it was 2 mL kg^−1, with 250 g rat receiving 0.5 mL of formulation. Sparse sampling approach was used to collect blood samples by cardiac puncture. The total volume of blood withdrawn within 24 hours was less than 5% of blood volume. Blood samples were collected in glass tubes at 0.083, 0.25, 0.5, 0.75, 1, 1.5, 2, 3, 4, 6, 8, 10, 18, 24, 48, and 60 h after oral dose. Blood samples were stored at room temperature for 30 min to separate the serum. Serum was separated by centrifugation at 1500 ×g for 10 min and stored at –60°C until analysis. Analysis was performed within 30 days of sample collection. Curve fitting and estimation of pharmacokinetic parameters of 97/63 were carried out using WinNonlin (5.1) software program (Pharsight Corp, USA). The data were tested using Gauss-Newton algorithm, with noncompartment, one compartment, and two-compartment models after applying different weighting factor to the observed values of the concentrations. Decision on the suitability of a particular compartment model in explaining the data was undertaken based on the Akaike or Schwarz information criterion, correlation coefficient, and scatter of residuals.

[2] = Stability studies of 97/63 in rat serum samples (long-term, freeze-thaw, dry residue, autoinjector); type: physicochemical
Method: Long-term stability of 97/63 was carried by preparing QC samples at low, medium, and high concentrations in three replicates for four different days and stored at -60°C. These sets of samples were analyzed after 0, 7, 15, and 30 days of storage and their concentrations were read from the respective calibration standard curve. The results are expressed as % deviation from 0 days concentration. F-T stability of 97/63 in serum samples was determined by preparing QC of strengths low (10 ng mL^-1), medium (100 ng mL^-1), and high (500 ng mL^-1) in three replicates for four different days. One set of three concentrations was analyzed on day of preparation (no F-T cycle) before storing the remaining sets at -60°C. Other sets were analyzed after 1, 2, and […] cycles. Thawing was achieved by keeping the sealed tubes at room temperatures for 30 min. The results are expressed as % deviation with initial concentration. The effect of storage on dry residue stability was determined at QC 10 ng mL^-1 (low), 100 ng mL^-1 (medium), and 500 ng mL^-1 (high) concentration levels. All the samples (three replicates of three concentrations × 4 sets) were prepared and dry residue was stored in glass tubes sealed with aluminum foil and then with parafilm. One set in triplicate was reconstituted on day 1 with mobile phase and analyzed on the same day (without storage). The remaining sets were similarly analyzed on days 2, 4, and 8 and results are expressed as % deviation. After sample preparation, stability of 97/63 in the autoinjector was evaluated for 4 h; the maximum duration for which the sample may have to wait in the autoinjector tray for pending analysis and results are expressed in % deviation with initial injection (t = 0 h).

log P = type: physicochemical
malarial parasites [3] = system: malarial parasites; parameters: method as in earlier work; conditions: cited from earlier work
malarial parasites [4] = system: malarial parasites; parameters: method as in earlier work; conditions: cited from earlier work; remark: listed apart in the source
[5] = Sprague-Dawley, rat, oral 72 mg kg^−1, male rats, serum

For `C=C(c1ccc(OC(C)(C)CO)cc1)C1COC2(OO1)C1CC3CC(C1)CC2C3` (stereo not shown) [97/63], the clearance ([1]; Sprague-Dawley, rat, serum, intravenous 18 mg kg^−1, male rats) was 148 mL/min/kg, the Vd ([1]; Sprague-Dawley, rat, serum, intravenous 18 mg kg^−1, male rats, read-out: Vd) was 135 ± 11.2 L/kg and the AUC(0-inf) ([1]; Sprague-Dawley, rat, intravenous 18 mg kg^−1, male rats, serum) was 2030 ± 574 ng·h/mL. For the same compound, the C0 ([1]; Sprague-Dawley, rat, intravenous 18 mg kg^−1, male rats, serum, mean ± SD, N = 4) was 1800 ± 330 ng/mL, the AUC(0-inf) [1, 5] was 1270 ± 27 ng·h/mL and the Tmax [1, 5] was 1 ± 0.7 h. For the same compound, the Cmax ([1]; Sprague-Dawley, rat, oral 72 mg kg^−1, male rats, serum, mean ± SD, N = 4) was 229 ± 64.3 ng/mL, the “metabolite peaks in rat serum” value ([1]; after oral and intravenous dose, HPLC-UV) was “No metabolite peaks were observed” and the half-life ([1]; male, Sprague-Dawley, rat, serum, iv, 18 mg/kg, intravenous 18 mg kg^−1, male rats, read-out: T 1/2 (α) distribution half-life (converted)) was 0.45 ± 0.08 h. It also gave a half-life ([1]; male, Sprague-Dawley, rat, serum, iv, 18 mg/kg, intravenous 18 mg kg^−1, male rats, read-out: T 1/2 (β) elimination half-life (converted)) of 10.6 ± 0.16 h, a bioavailability ([1]; male, Sprague-Dawley, rat, serum, oral, 72 mg kg^−1, oral 72 mg kg^−1 vs intravenous 18 mg kg^−1, male rats, read-out: % bioavailability (absolute)) of roughly 16% and a half-life ([1]; male, Sprague-Dawley, rat, serum, po, 72 mg/kg, oral 72 mg kg^−1, male rats, read-out: T 1/2 (α) distribution half-life (converted)) of 0.84 ± 0.14 h. The half-life ([1]; male, Sprague-Dawley, rat, serum, po, 72 mg/kg, oral 72 mg kg^−1, male rats, read-out: T 1/2 (β) elimination half-life (converted)) was 10.6 ± 0.2 h, the Cl ([1]; oral 72 mg kg^−1, male rats) was 187 ± 1.2 mL/min/kg and the Vd ([1]; oral 72 mg kg^−1, male rats) was 172.31 ± 28.59 L/kg. For the same compound, the “absorption rate constant (K a)” value ([1]; oral 72 mg kg^−1, male rats) was 0.82 h⁻¹, the “clinical symptoms after dosing” value ([1]; oral 72 mg kg^−1 and intravenous 18 mg kg^−1, male rats, sampling period) was “No abnormal clinical symptoms” and the “% bioavailability (absolute)” value ([1]; oral 72 mg kg^−1 vs intravenous 18 mg kg^−1, male rats) was 15.66%. The “reinjection (autoinjector) stability, deviation” value ([2]; 4 h gap, samples stored at 4°C) was “less than 10%”, the “dry residue stability after extraction” value ([2]; 8 days stored at −60°C) was “stable” and the “long-term stability in serum” value ([2]; 30 days, normal serum stored at −60°C) was “stable”. The “freeze-thaw stability in serum” value ([2]; three F-T cycles) was “stable”, the logP (log P) was less than 3.5 and the “potency against malarial parasites in vitro” value (malarial parasites [3]) was “good potency”. The “potency against malarial parasites in vivo” value (malarial parasites [4]) was “good potency”.
